Laboratory results taken from US4007179A, “Oxoindanylpropionic acids and process for the preparation thereof” (Sankyo Company Limited, priority 1975, dated 1977).

Key:
Assay type in all cases: in vivo
[1] = Antipyretic activity: TTG-induced fever test in guinea pigs; settings: Cavia porcellus, po, read-out: ID50 Antipyretic
Source text: Antipyretic activity Tested by TTG-induced fever test in guinea pigs [ modified methodof S. Kobayashi, H. Takagi; Jap.

[2] = Analgesic activity: thermal pain test in rats; settings: Rattus norvegicus, po, read-out: ID50 Analgesic
[3] = Anti-inflammatory activity: carrageenin edema test in rats; settings: Rattus norvegicus, po, read-out: ID50 Anti-inflammatory
Source text: Anti-inflammatory activity
Tested by carrageenin edema test in rats [C.

[4] = TTG-induced fever test in guinea pigs

CC(=O)Oc1ccccc1C(=O)O [Acetylsalicylic acid, reference compound]
ED50 [1]: 194 mg/kg | ED50 [2]: 81 mg/kg | ED50 [3]: 133 mg/kg

CCC1Cc2ccc(C(C)C(=O)O)cc2C1 (stereo not drawn) [2-(2-Ethylindan-5-yl)propionic acid]
ED50 [1, 4]: 1.7 mg/kg | ED50 ([2]; thermal pain test in rats): 10.5 mg/kg | ED50 ([3]; carrageenin edema test in rats): 10.3 mg/kg

CC(C(=O)O)c1ccc2c(c1)CC(C(C)C)C2 (stereo not drawn) [2-(2-Isopropylindan-5-yl)propionic acid]
ED50 [1, 4]: 1.8 mg/kg | ED50 ([2]; thermal pain test in rats): 2.5 mg/kg | ED50 ([3]; carrageenin edema test in rats): 7.1 mg/kg
